US9975895B2, “Substituted pyrimidinium compounds and derivatives for combating animal pests” (BASF SE, priority 2013, dated 2018)

Key:
Type in all cases: in vivo
[1] = tested on: Orchid thrips (Dichromothrips corbetti); assay: Orchid thrips floral-immersion bioassay; details: adult thrips, 72 hours after treatment, read-out: mortality in comparison with untreated controls
Procedure: Dichromothrips corbetti adults used for bioassay were obtained from a colony maintained continuously under laboratory conditions. For testing purposes, the test compound is diluted in a 1:1 mixture of acetone:water (vol:vol), plus 0.01% vol/vol Alkamuls® EL 620 surfactant. Thrips potency of each compound was evaluated by using a floral-immersion technique. Plastic petri dishes were used as test arenas. All petals of individual, intact orchid flowers were dipped into treatment solution and allowed to dry. Treated flowers were placed into individual petri dishes along with about 20 adult thrips. The petri dishes were then covered with lids. All test arenas were held under continuous light and a temperature of about 28° C. for duration of the assay. After 3 days, the numbers of live thrips were counted on each flower, and along inner walls of each petri dish. The percent mortality was recorded 72 hours after treatment.

[2] = tested on: Green peach aphid (Myzus persicae); assay: Green peach aphid control through systemic means, artificial diet under membrane; details: 72 h, adult aphids on treated diet, 3 days, read-out: mortality in comparison with untreated controls
From the text: For evaluating control of green peach aphid (Myzus persicae) through systemic means the test unit consisted of 96-well-microtiter plates containing liquid artificial diet under an artificial membrane.
The compounds were formulated using a solution containing 75% v/v water and 25% v/v DMSO. Different concentrations of formulated compounds were pipetted into the aphid diet, using a custom built pipetter, at two replications.
After application, 5-8 adult aphids were placed on the artificial membrane inside the microtiter plate wells. The aphids were then allowed to suck on the treated aphid diet and incubated at about 23±1° C. and about 50±5% relative humidity for 3 days. Aphid mortality and fecundity was then visually assessed.

[3] = tested on: Rice green leafhopper (Nephotettix virescens); assay: Rice green leafhopper, sprayed potted rice seedlings; details: adults on sprayed rice seedlings, after 72 hours, read-out: mortality in comparison with untreated controls
Procedure: (§1) Rice seedlings were cleaned and washed 24 hours before spraying. The active compounds were formulated in 50:50 acetone:water (vol:vol), and 0.1% vol/vol surfactant (EL 620) was added. Potted rice seedlings were sprayed with 5 ml test solution, air dried, placed in cages and inoculated with 10 adults. Treated rice plants were kept at about 28-29° C. and relative humidity of about 50-60%. Percent mortality was recorded after 72 hours.

[4] = tested on: Rice brown plant hopper (Nilaparvata lugens); assay: Rice brown plant hopper, sprayed potted rice seedlings; details: adults on sprayed rice seedlings, after 72 hours, read-out: mortality in comparison with untreated controls
Procedure: as §1, with “(vol:vol)” for “(vol:vol),”

[5] = tested on: Vetch aphid (Megoura viciae); assay: Vetch aphid control through contact or systemic means, broad bean leaf disks; details: foliar, 120 h, adult aphids on treated leaf disks, 5 days, read-out: mortality in comparison with untreated controls
Procedure: For evaluating control of vetch aphid (Megoura viciae) through contact or systemic means the test unit consisted of 24-well-microtiter plates containing broad bean leaf disks.
The compounds were formulated using a solution containing 75% v/v water and 25% v/v DMSO. Different concentrations of formulated compounds were sprayed onto the leaf disks at 2.5 μl, using a custom built micro atomizer, at two replications.
After application, the leaf disks were air-dried and 5-8 adult aphids placed on the leaf disks inside the microtiter plate wells. The aphids were then allowed to suck on the treated leaf disks and incubated at about 23±1° C. and about 50±5% relative humidity for 5 days. Aphid mortality and fecundity was then visually assessed.

[6] = tested on: Boll weevil (Anthonomus grandis); assay: Boll weevil control, 96-well microtiter plates with insect diet and eggs; details: 120 h, egg and larval mortality after 5 days, read-out: mortality in comparison with untreated controls
Procedure: For evaluating control of boll weevil (Anthonomus grandis) the test unit consisted of 96-well-microtiter plates containing an insect diet and 5-10 A. grandis eggs.
The compounds were formulated using a solution containing 75% v/v water and 25% v/v DMSO. Different concentrations of formulated compounds were sprayed onto the insect diet at 5 μl, using a custom built micro atomizer, at two replications.
After application, microtiter plates were incubated at about 25±1° C. and about 75±5% relative humidity for 5 days. Egg and larval mortality was then visually assessed.

[7] = tested on: Tobacco budworm (Heliothis virescens); assay: Tobacco budworm control, 96-well microtiter plates with insect diet and eggs; details: 120 h, egg and larval mortality after 5 days, read-out: mortality in comparison with untreated controls
Procedure: For evaluating control of tobacco budworm (Heliothis virescens) the test unit consisted of 96-well-microtiter plates containing an insect diet and 15-25 H. virescens eggs.
The compounds were formulated using a solution containing 75% v/v water and 25% v/v DMSO. Different concentrations of formulated compounds were sprayed onto the insect diet at 10 μl, using a custom built micro atomizer, at two replications.
After application, microtiter plates were incubated at about 28±1° C. and about 80±5% relative humidity for 5 days. Egg and larval mortality was then visually assessed.

O=c1c(-c2ccccc2)c([O-])[n+]2c3n1CCC3CCC2c1cnc(Cl)s1 (stereo not drawn) [C-2]
> 75%: mortality at 500 ppm [1] | mortality at 2500 ppm [2] | mortality at 500 ppm [3] | mortality at 500 ppm [4] | mortality at 2500 ppm [5]

O=c1c(-c2ccccc2)c([O-])[n+]2c3n1CCCC3CC2c1cnc(Cl)s1 (stereo not drawn) [C-3]
> 75%: mortality at 500 ppm [1] | mortality at 2500 ppm [2] | mortality at 500 ppm [3] | mortality at 500 ppm [4] | mortality at 2500 ppm [5]

O=c1c(-c2ccccc2)c([O-])[n+]2c3n1CCN3CCC2c1cnc(Cl)s1 (stereo not drawn) [C-4]
> 75%: mortality at 500 ppm [1] | mortality at 2500 ppm [2] | mortality at 500 ppm [3]

O=c1c(-c2ccccc2)c([O-])[n+]2c3n1CCCC3CCC2c1cnc(Cl)s1 (stereo not drawn) [C-6]
> 75%: mortality at 500 ppm [1] | mortality at 2500 ppm [2] | mortality at 500 ppm [3] | mortality at 500 ppm [4] | mortality at 2500 ppm [5]

O=c1c(-c2ccccc2)c([O-])[n+]2c3n1CCCN3CCC2c1cnc(Cl)s1 (stereo not drawn) [C-7]
> 75%: mortality at 500 ppm [1] | mortality at 2500 ppm [6] | mortality at 2500 ppm [2] | mortality at 500 ppm [3] | mortality at 500 ppm [4] | mortality at 2500 ppm [5]

O=c1c(-c2ccccc2)c([O-])[n+]2c3c(cccn13)CCC2c1cnc(Cl)s1 (stereo not drawn) [C-8]
> 75%: mortality at 500 ppm [1] | mortality at 2500 ppm [6] | mortality at 2500 ppm [2] | mortality at 500 ppm [3] | mortality at 500 ppm [4] | mortality at 2500 ppm [5] | mortality at 2500 ppm [7]

O=c1c(-c2cccc(C(F)(F)F)c2)c([O-])n2c3c(ccc[n+]13)CCC2c1cnc(Cl)s1 (stereo not drawn) [C-9]
> 75%: mortality at 2500 ppm [2] | mortality at 2500 ppm [5] | mortality at 2500 ppm [7]

O=c1c(-c2cc(Cl)cc(Cl)c2)c([O-])n2c3c(ccc[n+]13)CCC2c1cnc(Cl)s1 (stereo not drawn) [C-10]
> 75%: mortality at 2500 ppm [5] | mortality at 2500 ppm [7]

COc1ccc(-c2c([O-])n3c4c(ccc[n+]4c2=O)CCC3c2cnc(Cl)s2)cc1 (stereo not drawn) [C-11]
> 75%: mortality at 2500 ppm [2] | mortality at 2500 ppm [5] | mortality at 2500 ppm [7]
